# In US20260151379A1, “SALT TYPE AND CRYSTAL FORM OF COMPLEMENT FACTOR B INHIBITOR, AND PREPARATION METHOD THEREFOR AND APPLICATION THEREOF” (SHANGHAI MEIYUE BIOTECH DEVELOPMENT CO., LTD., priority 2022, published 2026):
# Values joined by “and” are separate entries in the source; they are usually repeats but may differ in a detail not shown here. Equal values may be shown once. Where a name gives a salt, the structure may show the parent alone.
# What was measured:
# Type in all cases: physicochemical
# [1] = Solubility tests in water, SGF, FaSSIF, FeSSIF at 37° C. (Example 5)
# Protocol: Experimental procedures: 30 mg (in water) or 15 mg of a sample was weighed out and added to a 4 mL vial; 3 mL of a medium to be tested (water, SGF, FaSSIF, or FeSSIF) was added; the mixture was continuously stirred at 37° C.; 0.5 mL of the sample was separately collected at 1 h and 24 h; centrifugation was performed at 12000 rpm for 10 min; the supernatant was diluted with 50% aqueous acetonitrile solution to an appropriate multiple; and the concentration of the supernatant was determined.
# Control and linearity: 10 mg of the compound of formula I was weighed out and added to a 50 mL volumetric flask, 50% aqueous acetonitrile solution was added for dissolution, and the mixture was diluted to volume. Two parts were prepared in parallel. The control of the compound of formula I was taken and diluted with 50% aqueous acetonitrile solution to 100 μg/mL, 50 μg/mL, and 10 μg/mL, 5 μL of the sample was injected, and a standard curve was plotted.
# [2] = Stability tests of compound of formula I and its monohydrochloride, phosphate and maleate (Example 4); settings: for Stability (conclusion in words from Table 7): 40° C./75% RH closed/open and 60° C. closed, 2 wks
# Protocol: The stability of the compound of formula I, the monohydrochloride of the compound of formula I in Example 1, the phosphate of the compound of formula I in Example 2, and the maleate of the compound of formula I in Example 3 were investigated.
# Stability investigation conditions: 40° C./75% RH-closed, 40° C./75% RH-open, and 60° C.-closed; stability investigation content: changes in related substances and crystal forms.
# Detection of related substances: about 6-7 mg of a sample was separately weighed out and added to a 10 mL volumetric flask; 50% aqueous acetonitrile solution was added for dissolution; the mixture was diluted to volume; and 10 μL of the sample was injected.
# [3] = Open storage of crystal form A under acceleration conditions (Example 7); settings: 40° C./75% RH, 72 h
# Excerpt: The crystal form B is a monohydrate of the monohydrochloride of the compound of formula I.
# [4] = Stability investigation of crystal form C of monohydrochloride, 1 month (Example 11)
# Protocol: […] The stability of the crystal form was investigated.
# Detection method for related substances of the stability sample: about 6 mg of the sample was weighed out and added to a 40 mL clean glass bottle; 10 mL of 50% aqueous acetonitrile solution was added; the sample was dissolved completely by ultrasonication; and 10 μL of the sample was injected for the test of the related substances, as shown in Table 15. The XRPD pattern is shown in FIG. 18, wherein HCl-salt Form 3-initial (hereinafter referred to as initial) represents the XRPD pattern of the crystal form C prepared in Example 8.
# [5] = Solubility tests of compound of formula I, mixture of crystal forms A and B, and crystal form C at 37° C. (Example 13)
# Protocol: An appropriate amount of a test sample was weighed out and added to a vial; 3 mL of a medium (water, SGF, FaSSIF, FeSSIF, or the like) was added; the mixture was stirred at 37° C.; […]; centrifugation was performed at 12000 rpm for 10 min; the supernatant was diluted with 50% aqueous acetonitrile solution to an appropriate multiple; and the concentration of the supernatant was determined.
# Control and linearity: 10 mg of the compound of formula I was weighed out and added to a 50 mL volumetric flask, 50% aqueous acetonitrile solution was added for dissolution, and the mixture was diluted to volume. Two parts were prepared in parallel. The control was taken and diluted with 50% aqueous acetonitrile solution to 100 μg/mL, 50 μg/mL, and 10 μg/mL, 5 μL of the sample was injected, and a standard curve was plotted.
# [6] = Effect of high temperature and high humidity on crystal form C (Example 12); settings: open, 60° C., 80% RH and 92.5% RH, 1 day and 3 days
# Excerpt: The sample was separately collected on 1d and 3d for XRPD testing.
# [7] = FaSSIF, listed as Compound of formula I Hydrochloride
# [8] = FeSSIF, listed as Compound of formula I Hydrochloride
# [9] = SGF, listed as Compound of formula I Hydrochloride
# [10] = Water, listed as Compound of formula I Hydrochloride
# [11] = Initial, listed as Crystal form C of monohydrochloride of compound of formula I
# [12] = pH 6.8 (adjusted with sodium hydroxide solution), 37° C.
# [13] = pH 7.4 (adjusted with sodium hydroxide solution), 37° C.
smiles,measurement,setting,value
COc1cc(C)c2[nH]ccc2c1CN1CC[C@H](OCC2CC2)C[C@H]1c1ccc(C(=O)O)cc1 [Compound of formula I Monohydrochloride],Final pH,[1]; [7],3.83
same,Solubility (mg/mL) (1 h),[1]; [7],0.64 mg/mL
same,Solubility (mg/mL) (24 h),[1]; [7],0.39 mg/mL
same,Final pH,[1]; [8],4.85
same,Solubility (mg/mL) (1 h),[1]; [8],0.74 mg/mL
same,Solubility (mg/mL) (24 h),[1]; [8],0.44 mg/mL
same,Final pH,[1]; [9],1.52
same,Solubility (mg/mL) (1 h),[1]; [9],5.90 mg/mL
same,Solubility (mg/mL) (24 h),[1]; [9],5.97 mg/mL
same,Final pH,[1]; [10],2.49
same,Solubility (mg/mL) (1 h),[1]; [10],11.74 mg/mL
same,Solubility (mg/mL) (24 h),[1]; [10],11.14 mg/mL
same,Stability (conclusion in words from Table 7),[2]; listed as monohydrochloride,more stable
same,Appearance,[2]; 40° C./75% RH-closed-2 wks,White powder
same,Maximum single impurity %,[2]; 40° C./75% RH-closed-2 wks,0.11%
same,Purity %,[2]; 40° C./75% RH-closed-2 wks,99.57%
same,Total impurity %,[2]; 40° C./75% RH-closed-2 wks,0.43%
same,Appearance,[2]; 40° C./75% RH-open-2 wks,White powder
same,Maximum single impurity %,[2]; 40° C./75% RH-open-2 wks,0.10%
same,Purity %,[2]; 40° C./75% RH-open-2 wks,99.59%
same,Total impurity %,[2]; 40° C./75% RH-open-2 wks,0.41%
same,Appearance,[2]; 60° C.-closed-2 wks,White powder
same,Maximum single impurity %,[2]; 60° C.-closed-2 wks,0.13%
same,Purity %,[2]; 60° C.-closed-2 wks,99.59%
same,Total impurity %,[2]; 60° C.-closed-2 wks,0.41%
same,Appearance,[2]; Initial,White powder
same,Maximum single impurity %,[2]; Initial,0.14%
same,Purity %,[2]; Initial,99.59%
same,Total impurity %,[2]; Initial,0.41%
COc1cc(C)c2[nH]ccc2c1CN1CCC(OCC2CC2)CC1c1ccc(C(=O)O)cc1.O=C(O)C=CC(=O)O (stereo not shown) [Compound of formula I Maleate],Stability (conclusion in words from Table 7),[2],stable
same,Appearance,[2]; 40° C./75% RH-closed-2 wks,White powder
same,Maximum single impurity %,[2]; 40° C./75% RH-closed-2 wks,0.08%
same,Purity %,[2]; 40° C./75% RH-closed-2 wks,99.78%
same,Total impurity %,[2]; 40° C./75% RH-closed-2 wks,0.22%
same,Maximum single impurity %,[2]; 40° C./75% RH-open-2 wks,0.09%
same,Purity %,[2]; 40° C./75% RH-open-2 wks,99.64%
same,Total impurity %,[2]; 40° C./75% RH-open-2 wks,0.36%
same,Appearance,[2]; 60° C.-closed-2 wks,White powder
same,Maximum single impurity %,[2]; 60° C.-closed-2 wks,0.09%
same,Purity %,[2]; 60° C.-closed-2 wks,99.69%
same,Total impurity %,[2]; 60° C.-closed-2 wks,0.31%
same,Appearance,[2]; Initial,White powder
same,Maximum single impurity %,[2]; Initial,0.08%
same,Purity %,[2]; Initial,99.80%
same,Total impurity %,[2]; Initial,0.20%
COc1cc(C)c2[nH]ccc2c1CN1CCC(OCC2CC2)CC1c1ccc(C(=O)O)cc1.Cl (stereo not shown) [Crystal form A],Crystal form after open storage,[3],transformed into crystal form B
COc1cc(C)c2[nH]ccc2c1CN1CCC(OCC2CC2)CC1c1ccc(C(=O)O)cc1.O=P(O)(O)O (stereo not shown) [Compound of formula I Phosphate],Final pH,[1]; FaSSIF,4.76
same,Solubility (mg/mL) (1 h),[1]; FaSSIF,0.45 mg/mL
same,Solubility (mg/mL) (24 h),[1]; FaSSIF,0.27 mg/mL
same,Final pH,[1]; FessIF,4.84
same,Solubility (mg/mL) (1 h),[1]; FessIF,0.64 mg/mL
same,Solubility (mg/mL) (24 h),[1]; FessIF,0.40 mg/mL
same,Final pH,[1]; SGF,1.61
same,Solubility (mg/mL) (1 h),[1]; SGF,5.35 mg/mL
same,Solubility (mg/mL) (24 h),[1]; SGF,5.55 mg/mL
same,Final pH,[1]; Water,2.53
same,Solubility (mg/mL) (1 h),[1]; Water,8.07 mg/mL
same,Solubility (mg/mL) (24 h),[1]; Water,6.24 mg/mL
same,Stability (conclusion in words from Table 7),[2],stable
same,Appearance,[2]; 40° C./75% RH-closed-2 wks,White powder
same,Maximum single impurity %,[2]; 40° C./75% RH-closed-2 wks,0.09%
same,Purity %,[2]; 40° C./75% RH-closed-2 wks,99.63%
same,Total impurity %,[2]; 40° C./75% RH-closed-2 wks,0.37%
same,Appearance,[2]; 40° C./75% RH-open-2 wks,White powder
same,Maximum single impurity %,[2]; 40° C./75% RH-open-2 wks,0.09%
same,Purity %,[2]; 40° C./75% RH-open-2 wks,99.64%
same,Total impurity %,[2]; 40° C./75% RH-open-2 wks,0.36%
same,Appearance,[2]; 60° C.-closed-2 wks,White powder
same,Maximum single impurity %,[2]; 60° C.-closed-2 wks,0.08%
same,Purity %,[2]; 60° C.-closed-2 wks,99.62%
same,Total impurity %,[2]; 60° C.-closed-2 wks,0.38%
same,Appearance,[2]; Initial,White powder
same,Maximum single impurity %,[2]; Initial,0.07%
same,Purity %,[2]; Initial,99.75%
same,Total impurity %,[2]; Initial,0.25%
COc1cc(C)c2[nH]ccc2c1CN1CCC(OCC2CC2)CC1c1ccc(C(=O)O)cc1.Cl (stereo not shown) [Crystal form C],Chemical stability (in words),[4]; 40° C./75% RH and 60° C. for 1 month,good chemical stability
same,Maximum single impurity %,[4]; 40° C./75% RH-closed-1 M,0.29%
same,Purity %,[4]; 40° C./75% RH-closed-1 M,99.58%
same,Total impurity %,[4]; 40° C./75% RH-closed-1 M,0.42%
same,Maximum single impurity %,[4]; 40° C.75% RH-open-1 M,0.27%
same,Purity %,[4]; 40° C.75% RH-open-1 M,99.60%
same,Total impurity %,[4]; 40° C.75% RH-open-1 M,0.40%
same,Maximum single impurity %,[4]; 60° C.-closed-1 M,0.32%
same,Purity %,[4]; 60° C.-closed-1 M,99.56%
same,Total impurity %,[4]; 60° C.-closed-1 M,0.44%
same,Appearance,[4]; Initial,White powder
same,Maximum single impurity %,[4]; [11],0.65% and 0.96%
same,Purity %,[4]; [11],99.17% and 98.88%
same,Total impurity %,[4]; [11],0.83% and 1.12%
same,Crystal form by XRPD after storage (FIG. 18),"[4]; acceleration and high temperature conditions, 1 month",not changed
same,Final pH,"[5]; FaSSIF, 37° C.",3.27
same,solubility at 1 h,"[5]; FaSSIF, 37° C.",1160 µg/mL
same,solubility at 24 h,"[5]; FaSSIF, 37° C.",880 µg/mL
same,Final pH,"[5]; FessIF, 37° C.",4.83
same,solubility at 1 h,"[5]; FessIF, 37° C.",640 µg/mL
same,solubility at 24 h,"[5]; FessIF, 37° C.",420 µg/mL
same,Final pH,"[5]; SGF, 37° C.",1.26
same,solubility at 1 h,"[5]; SGF, 37° C.",940 µg/mL
same,solubility at 24 h,"[5]; SGF, 37° C.",790 µg/mL
same,Final pH,"[5]; Water, 37° C.",2.49
same,Solubility in water compared to mixture of crystal forms A and B (in words),"[5]; Water, 37° C.",reduced solubility in water compared to the mixture of crystal forms A and B
same,solubility at 1 h,"[5]; Water, 37° C.",8320 µg/mL
same,solubility at 24 h,"[5]; Water, 37° C.",7540 µg/mL
same,Solubility at 1 h (mg/mL),[5]; [12],0.56(1 h) mg/mL
same,Solubility (mg/mL) (48 h),[5]; [12],0.21(48 h) mg/mL
same,Final pH,"[5]; pH 6.8, 37° C., 1 h line",6.65
same,Final pH,"[5]; pH 6.8, 37° C., 48 h line",6.82
same,Solubility at 1 h (mg/mL),[5]; [13],0.45(1 h) mg/mL
same,Solubility (mg/mL) (48 h),[5]; [13],0.24(48 h) mg/mL
same,Final pH,"[5]; pH 7.4, 37° C., 1 h line",7.23
same,Final pH,"[5]; pH 7.4, 37° C., 48 h line",7.42
same,Crystal form by XRPD after exposure (FIGS. 19 and 20),[6],not changed
